Measured values reported in patent publication US8178695B2, “4-(3-aminobenzoyl)-1,3-dimethylpyrazoles and their use as herbicides” (Bayer Cropscience AG, priority 2007, dated 2012).
Read-outs that look alike come from different tables or passages of the source.

Key:
Assay type in all cases: in vivo
Galium aparine [1] = assay: Pre-emergence herbicidal action against harmful plants; settings: Comparative table 9, pre-emergence, 320 g a.i./ha, visual scoring 3-4 weeks after treatment
Description: (§1) Seeds or rhizome pieces of mono- and dicotyledonous harmful plants are placed in sandy loam in pots of a diameter of 9 to 13 cm and covered with soil. The herbicides, formulated as emulsifiable concentrates or dusts, are applied to the surface of the covering soil in the form of aqueous dispersions or suspensions or emulsions at an application rate of 300 to 800 l of water/ha (converted), at various dosages. For further cultivation of the plants, the pots are then kept in a greenhouse under optimum conditions. The visual scoring of the damage to the harmful plants is carried out 3-4 weeks after the treatment. As shown by the results of these comparative tables, the selected compounds according to the invention have better herbicidal activity against a broad spectrum of economically important mono- and dicotyledonous harmful plants than the compounds disclosed in the prior art.

Xanthium strumarium [2] = assay: as above; settings: Comparative table 9, pre-emergence, 320 g a.i./ha, visual scoring 3-4 weeks after treatment
Description: as §1

Abutilon theophrasti = assay: Post-emergence herbicidal action against harmful plants; settings: 20 g a.i./ha, scored after 3 to 4 weeks
Protocol: (§2) Seeds of mono- and dicotyledonous harmful plants are placed in sandy loam in cardboard pots, covered with soil and grown in the greenhouse under good growth conditions. Two to three weeks after sowing, the test plants are treated at the three-leaf stage. The compounds according to the invention, which are formulated as wettable powders or as emulsion concentrates, are sprayed at an application rate of 600 to 800 l of water/ha (converted) in a dosage stated in tables 1 to 5 onto the surface of the green plant parts. After the test plants have been left to stand in the greenhouse for 3 to 4 weeks under optimum growth conditions, the action of the compounds according to the invention is scored in comparison to compounds disclosed in the prior art. As shown by the results of these comparison tables, the selected compounds according to the invention have better herbicidal activity against a broad spectrum of economically important mono- and dicotyledonous harmful plants than the compounds disclosed in the prior art.

Setaria viridis [3] = assay: as above; settings: 504 h, scored after 3 to 4 weeks, read-out: Activity against harmful plants SETVI; for pest or weed control at 20 g/ha: 20 g a.i./ha; for pest or weed control at 80 g/ha: Comparative table 3, post-emergence, 80 g a.i./ha
Protocol: as §2

Amaranthus retroflexus [4] = assay: Pre-emergence herbicidal action against harmful plants; settings: visual scoring 3-4 weeks after treatment
Description: as §1

Setaria viridis [5] = assay: as above; settings: Comparative table 7, pre-emergence, 20 g a.i./ha, visual scoring 3-4 weeks after treatment
Description: as §1

Veronica persica [6] = assay: as above; settings: Comparative table 7, pre-emergence, 20 g a.i./ha, visual scoring 3-4 weeks after treatment
Description: as §1

Viola tricolor [7] = assay: as above; settings: Comparative table 7, pre-emergence, 20 g a.i./ha, visual scoring 3-4 weeks after treatment
Description: as §1

Amaranthus retroflexus [8] = assay: Post-emergence herbicidal action against harmful plants; settings: 80 g a.i./ha, scored after 3 to 4 weeks
Protocol: as §2

Galium aparine [9] = assay: as above; settings: Comparative table 2, post-emergence, 80 g a.i./ha, scored after 3 to 4 weeks
Protocol: as §2

Xanthium strumarium [10] = assay: as above; settings: Comparative table 2, post-emergence, 80 g a.i./ha, scored after 3 to 4 weeks
Protocol: as §2

Cyperus serotinus [11] = assay: as above; settings: Comparative table 3, post-emergence, 80 g a.i./ha, scored after 3 to 4 weeks
Protocol: as §2

ALOMY = assay: Pre-emergence herbicidal action against harmful plants; settings: Comparative table 6, pre-emergence, 320 g a.i./ha, visual scoring 3-4 weeks after treatment
Description: as §1

Matricaria inodora = assay: as above; settings: Comparative table 6, pre-emergence, 320 g a.i./ha, visual scoring 3-4 weeks after treatment
Description: as §1

Veronica persica [12] = assay: Post-emergence herbicidal action against harmful plants; settings: 20 g a.i./ha, scored after 3 to 4 weeks
Protocol: as §2

Viola tricolor [13] = assay: as above; settings: Comparative table 1, post-emergence, 20 g a.i./ha, scored after 3 to 4 weeks
Protocol: as §2

Cyperus serotinus [14] = assay: Pre-emergence herbicidal action against harmful plants; settings: Comparative table 5, pre-emergence, 320 g a.i./ha, visual scoring 3-4 weeks after treatment
Description: as §1

Lolium multiflorum = assay: as above; settings: Comparative table 5, pre-emergence, 320 g a.i./ha, visual scoring 3-4 weeks after treatment
Description: as §1

Stellaria media = assay: as above; settings: Comparative table 5, pre-emergence, 320 g a.i./ha, visual scoring 3-4 weeks after treatment
Description: as §1

[15] = Comparative table 8, post-emergence
[16] = Comparative table 7, pre-emergence, 20 g a.i./ha
[17] = Comparative table 2, post-emergence
[18] = Comparative table 3, post-emergence
[19] = Comparative table 6, pre-emergence, 320 g a.i./ha
[20] = Comparative table 1, post-emergence
[21] = Comparative table 4, post-emergence

Structure (SMILES): CCn1ncc(C(=O)c2ccc(S(C)(=O)=O)c(N(C)C)c2C)c1O
- Activity against harmful plants GALAP (Galium aparine [1]): 80%
- Activity against harmful plants XANST (Xanthium strumarium [2]): 10%

Structure (SMILES): COCCCNc1c(S(C)(=O)=O)ccc(C(=O)c2c(C)nn(C)c2O)c1C
- Activity against harmful plants ABUTH (Abutilon theophrasti; [15]): 90%
- pest or weed control at 20 g/ha (Setaria viridis [3]; [15]): 100%

Structure (SMILES): COCCCNc1c(S(C)(=O)=O)ccc(C(=O)c2c(C)nn(C)c2O)c1Cl
- Activity against harmful plants ABUTH (Abutilon theophrasti; [15]): 70%
- pest or weed control at 20 g/ha (Setaria viridis [3]; [15]): 70%

Structure (SMILES): Cc1nn(C)c(O)c1C(=O)c1ccc(S(C)(=O)=O)c(N(C)CC2CC2)c1Cl
- Activity against harmful plants AMARE (Amaranthus retroflexus [4]; [16]): 20%
- Activity against harmful plants SETVI (Setaria viridis [5]): 0%
- Activity against harmful plants VERPE (Veronica persica [6]): 0%
- Activity against harmful plants VIOTR (Viola tricolor [7]): 0%

Structure (SMILES): CNc1c(S(C)(=O)=O)ccc(C(=O)c2c(C)nn(C)c2O)c1C
- Activity against harmful plants AMARE (Amaranthus retroflexus [8]; [17]): 90%
- Activity against harmful plants GALAP (Galium aparine [9]): 80%
- Activity against harmful plants XANST (Xanthium strumarium [10]): 70%

Structure (SMILES): CCCNc1c(S(C)(=O)=O)ccc(C(=O)c2c(C)nn(C)c2O)c1Cl
- Activity against harmful plants AMARE (Amaranthus retroflexus [8]; [18]): 70%
- Activity against harmful plants CYPES (Cyperus serotinus [11]): 50%
- pest or weed control at 80 g/ha (Setaria viridis [3]): 70%

Structure (SMILES): Cc1nn(C)c(O)c1C(=O)c1ccc(S(C)(=O)=O)c(NCC2CC2)c1Cl
- Activity against harmful plants ALOMY (ALOMY): 20%
- Activity against harmful plants AMARE (Amaranthus retroflexus [4]; [19]): 90%
- Activity against harmful plants MATIN (Matricaria inodora): 0%

Structure (SMILES): CCCNc1c(S(C)(=O)=O)ccc(C(=O)c2c(C)nn(C)c2O)c1C
- Activity against harmful plants AMARE (Amaranthus retroflexus [8]; [18]): 100%
- Activity against harmful plants CYPES (Cyperus serotinus [11]): 80%
- pest or weed control at 80 g/ha (Setaria viridis [3]): 90%

Structure (SMILES): Cc1nn(C)c(O)c1C(=O)c1ccc(S(C)(=O)=O)c(N)c1C
- pest or weed control at 20 g/ha (Setaria viridis [3]; [20]): 80%
- Activity against harmful plants VERPE (Veronica persica [12]; [20]): 90%
- Activity against harmful plants VIOTR (Viola tricolor [13]): 80%

Structure (SMILES): Cc1nn(C)c(O)c1C(=O)c1ccc(S(C)(=O)=O)c(NCC2CC2)c1C
- Activity against harmful plants ALOMY (ALOMY): 60%
- Activity against harmful plants AMARE (Amaranthus retroflexus [4]; [19]): 100%
- Activity against harmful plants MATIN (Matricaria inodora): 80%

Structure (SMILES): Cc1nn(C)c(O)c1C(=O)c1ccc(S(C)(=O)=O)c(N)c1Cl
- pest or weed control at 20 g/ha (Setaria viridis [3]; [20]): 40%
- Activity against harmful plants VERPE (Veronica persica [12]; [20]): 70%
- Activity against harmful plants VIOTR (Viola tricolor [13]): 70%

Structure (SMILES): CNc1c(S(C)(=O)=O)ccc(C(=O)c2c(C)nn(C)c2O)c1Cl
- Activity against harmful plants AMARE (Amaranthus retroflexus [8]; [17]): 70%
- Activity against harmful plants GALAP (Galium aparine [9]): 60%
- Activity against harmful plants XANST (Xanthium strumarium [10]): 50%

Structure (SMILES): Cc1nn(C)c(O)c1C(=O)c1ccc(S(C)(=O)=O)c(NC(C)C)c1C
- Activity against harmful plants ABUTH (Abutilon theophrasti; [21]): 90%
- pest or weed control at 20 g/ha (Setaria viridis [3]; [21]): 90%
- Activity against harmful plants VERPE (Veronica persica [12]; [21]): 70%

Structure (SMILES): Cc1nn(C)c(O)c1C(=O)c1ccc(S(C)(=O)=O)c(N(C)CC2CC2)c1C
- Activity against harmful plants AMARE (Amaranthus retroflexus [4]; [16]): 100%
- Activity against harmful plants SETVI (Setaria viridis [5]): 90%
- Activity against harmful plants VERPE (Veronica persica [6]): 90%
- Activity against harmful plants VIOTR (Viola tricolor [7]): 100%

Structure (SMILES): Cc1nn(C)c(O)c1C(=O)c1ccc(S(C)(=O)=O)c(NC(C)C)c1Cl
- Activity against harmful plants ABUTH (Abutilon theophrasti; [21]): 80%
- pest or weed control at 20 g/ha (Setaria viridis [3]; [21]): 80%
- Activity against harmful plants VERPE (Veronica persica [12]; [21]): 40%

Structure (SMILES): CCOCCNc1c(S(C)(=O)=O)ccc(C(=O)c2c(C)nn(C)c2O)c1Cl
- Activity against harmful plants CYPES (Cyperus serotinus [14]): 60%
- Activity against harmful plants LOLMU (Lolium multiflorum): 0%
- Activity against harmful plants STEME (Stellaria media): 0%

Structure (SMILES): CCOCCNc1c(S(C)(=O)=O)ccc(C(=O)c2c(C)nn(C)c2O)c1C
- Activity against harmful plants CYPES (Cyperus serotinus [14]): 80%
- Activity against harmful plants LOLMU (Lolium multiflorum): 50%
- Activity against harmful plants STEME (Stellaria media): 90%

Structure (SMILES): Cc1nn(C)c(O)c1C(=O)c1ccc(S(C)(=O)=O)c(N(C)C)c1C
- Activity against harmful plants GALAP (Galium aparine [1]): 90%
- Activity against harmful plants XANST (Xanthium strumarium [2]): 100%
